What was measured:
[1] = system: NOD mouse model of type 1 diabetes; test: Intrathymic injection in NOD mice, later diabetes incidence; assay type: in vivo
Experimental: The NOD mouse model is an animal model of type 1 diabetes. The mice develop spontaneously diabetes within 200 days of life with an incidence of 50% or more. In the present study the animals were examined daily and once a week checked for glucosuria. They were diagnosed as diabetic if their blood glucose values was higher than 200 mg glucose per 100 ml. When diagnosed as diabetics the animals were sacrificed. Otherwise the remaining non-diabetic animals were sacrificed at the end 5 of the study after 200 days of age.
Four groups of animals each containing between 30 and 40 animals were investigated: The animals were injected intrathymically when 3 weeks old. There was injected […] galactosylceramide in 100 μl vehicle (PBS). The control mice were treated with the 100 μl PBS alone. In another experiment liposome preparation of galactosylceramide was made using phosphatidylcholin and galactosylceramide. The control group was treated with phosphatidylcholin and PBS alone.

[2] = system: human mononuclear cells (monocytes and T-cells); conditions: compared to incubation with LPS and PHA without galactosylceramide; cited from earlier work

Question: With galactosylceramide as the substance, how does the “mice that developed diabetes, two studies together” value ([1]; both studies pooled, 31 of 70 mice, PBS mice 57.4%) read?
Answer: Its value is 44.3%.

Question: What about the “time of diabetes development versus control mice” value ([1]; first study, pure form) of the same substance?
Answer: The value was “occurred later than among the control mice”.

Question: What about the “mice that developed diabetes” value ([1]; first study, pure form in PBS, intrathymic injection at 3 weeks old, followed to 200 days of age, 17 of 37 mice, PBS control 56.8%) of the same substance?
Answer: The value was 45.9%.

Question: What about the IL-6 production [2] of the same substance?
Answer: Its IL-6 production is “increased”.

Question: What about the TNF production [2] of the same substance?
Answer: Its TNF production is “increased”.

From patent publication US6492337B1, “Galactosylceramide, glucosylceramide, lactosylceramide, and specific catchers therefor for use in the prophylaxis or therapy of prediabetes, diabetes and/or associated complication” (A+ Science AB, priority 1997, dated 2002)
